In PubChem BioAssay AID248 (DTP/NCI, 2004):
Where “and” joins values, the source holds several entries; their conditions need not be identical. Equal entries are not always repeated. Toxic doses and inconclusive results are not listed. No stated cut-off is given here; in the data, active means T/C of 150% or more; inactive means T/C below 125%.

Test system: L1210 leukemia ip in BDF1 mice, survival T/C
Assay: NCI In Vivo Anticancer Drug Screen. Data for tumor model L1210 Leukemia (intraperitoneal) in B6D2F1 (BDF1) mice
Settings: endpoint: mean survival time, higher = longer survival
In short: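 Ratio derived from survival: compound-dosed mice over vehicle-dosed mice, all bearing a transplantable tumor.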

[1] = dose: 100.0 mg/kg/injection, schedule: Q04DX003 (ip), vehicle: saline with Tween-80
[2] = dose: 200.0 mg/kg/injection, schedule: Q04DX003 (ip), vehicle: saline with Tween-80
[3] = dose: 400.0 mg/kg/injection, schedule: Q04DX003 (ip), vehicle: saline with Tween-80
[4] = dose: 25.0 mg/kg/injection, schedule: Q01DX009 (ip), vehicle: Klucel (hydroxypropylcellulose) (HPC)
[5] = dose: 50.0 mg/kg/injection, schedule: Q01DX001 (ip), vehicle: saline
[6] = dose: 50.0 mg/kg/injection, schedule: Q01DX009 (ip), vehicle: Klucel (hydroxypropylcellulose) (HPC)
[7] = dose: 100.0 mg/kg/injection, schedule: Q01DX001 (ip), vehicle: saline
[8] = dose: 100.0 mg/kg/injection, schedule: Q01DX009 (ip), vehicle: Klucel (hydroxypropylcellulose) (HPC)
[9] = dose: 100.0 mg/kg/injection, schedule: Q04DX003 (ip), vehicle: Klucel (hydroxypropylcellulose) (HPC)
[10] = dose: 200.0 mg/kg/injection, schedule: Q01DX001 (ip), vehicle: saline
[11] = dose: 200.0 mg/kg/injection, schedule: Q01DX009 (ip), vehicle: Klucel (hydroxypropylcellulose) (HPC)
[12] = dose: 200.0 mg/kg/injection, schedule: Q04DX003 (ip), vehicle: Klucel (hydroxypropylcellulose) (HPC)
[13] = dose: 400.0 mg/kg/injection, schedule: Q01DX001 (ip), vehicle: saline
[14] = dose: 400.0 mg/kg/injection, schedule: Q01DX009 (ip), vehicle: Klucel (hydroxypropylcellulose) (HPC)
[15] = dose: 50.0 mg/kg/injection, schedule: Q01DX009 (ip), vehicle: saline with Tween-80
[16] = dose: 100.0 mg/kg/injection, schedule: Q01DX009 (ip), vehicle: saline with Tween-80
[17] = dose: 200.0 mg/kg/injection, schedule: Q01DX009 (ip), vehicle: saline with Tween-80

Measured: T/C

CCOC(=O)N/N=C/c1ccc(N(C)CCC#N)cc1
inactive: dose: 100.0 mg/kg/injection, schedule: Q01DX001 (ip), vehicle: saline with Tween-80 100 % of control | dose: 100.0 mg/kg/injection, schedule: Q04DX002 (ip), vehicle: saline with Tween-80 95 % of control and 107 % of control | [1] 102 % of control | dose: 200.0 mg/kg/injection, schedule: Q01DX001 (ip), vehicle: saline with Tween-80 103 % of control | dose: 200.0 mg/kg/injection, schedule: Q04DX002 (ip), vehicle: saline with Tween-80 96 % of control and 104 % of control | [2] 93 % of control and 98 % of control | dose: 400.0 mg/kg/injection, schedule: Q04DX002 (ip), vehicle: saline with Tween-80 98 % of control and 107 % of control | [3] 94 % of control and 96 % of control

O=C1CCC(N2C(=O)c3ccccc3C2=O)C(=O)N1 (stereo unspecified)
inactive: [4] 112 % of control | dose: 25.0 mg/kg/injection, schedule: Q04DX003 (ip), vehicle: Klucel (hydroxypropylcellulose) (HPC) 109 % of control | dose: 31.3 mg/kg/injection, schedule: Q01DX Z (ip), vehicle: saline 102 % of control | [5] 105 % of control | [6] 111 % of control | dose: 50.0 mg/kg/injection, schedule: Q04DX003 (ip), vehicle: Klucel (hydroxypropylcellulose) (HPC) 95 % of control | dose: 62.5 mg/kg/injection, schedule: Q01DX Z (ip), vehicle: saline 94 % of control | [7] 105 % of control | [8] 103 % of control | dose: 100.0 mg/kg/injection, schedule: Q01DX009 (ip), vehicle: saline 96 % of control | [9] 98 % of control | dose: 125.0 mg/kg/injection, schedule: Q01DX Z (ip), vehicle: saline 104 % of control | [10] 111 % of control | [11] 100 % of control | dose: 200.0 mg/kg/injection, schedule: Q01DX009 (ip), vehicle: saline 102 % of control | [12] 98 % of control | dose: 250.0 mg/kg/injection, schedule: Q01DX Z (ip), vehicle: saline 102 % of control | [13] 109 % of control | [14] 101 % of control | dose: 400.0 mg/kg/injection, schedule: Q01DX009 (ip), vehicle: saline 98 % of control | dose: 400.0 mg/kg/injection, schedule: Q04DX003 (ip), vehicle: Klucel (hydroxypropylcellulose) (HPC) 106 % of control | dose: 800.0 mg/kg/injection, schedule: Q01DX009 (ip), vehicle: saline 95 % of control

CCCCCCCCCCC(N)P(=O)(O)O (stereo unspecified)
inactive: dose: 12.5 mg/kg/injection, schedule: Q01DX009 (ip), vehicle: saline with Tween-80 103 % of control | dose: 25.0 mg/kg/injection, schedule: Q01DX009 (ip), vehicle: saline with Tween-80 101 % of control | [15] 105 % of control | dose: 300.0 mg/kg/injection, schedule: Q01DX001 (ip), vehicle: saline 98 % of control

O=C(O)c1cc([N+](=O)[O-])ccc1P(=O)(O)O
inactive: dose: 75.0 mg/kg/injection, schedule: Q01DX001 (ip), vehicle: saline 93 % of control | dose: 150.0 mg/kg/injection, schedule: Q01DX001 (ip), vehicle: saline 95 % of control

O=C(NC1CCCCC1)NS(=O)(=O)c1ccc2c(c1)CCC2
inactive: [7] 100 % of control | [10] 102 % of control | [13] 96 % of control

C1=CC2C3CC(OCCOC4CC5CC4C4CC=CC54)C(C3)C2C1 (stereo unspecified)
inactive: [16] 97 % of control | [1] 98 % of control | [17] 93 % of control | [2] 100 % of control | dose: 400.0 mg/kg/injection, schedule: Q01DX009 (ip), vehicle: saline with Tween-80 104 % of control | [3] 95 % of control

CN(C)N=Nc1ccc(C(=O)NC(CCC(=O)NN)C(=O)NN)cc1 (stereo unspecified)
inactive: [7] 96 % of control | [10] 111 % of control | [13] 94 % of control

CC(C)c1cc(CN(C)C)cc(C(C)C)c1O
inactive: [9] 95 % of control | [12] 102 % of control

O=C(NC1CCCCC1)C1COc2ccccc2O1 (stereo unspecified)
inactive: dose: 100.0 mg/kg/injection, schedule: Q01DX001 (ip), vehicle: Klucel (hydroxypropylcellulose) (HPC) 98 % of control | [8] 95 % of control | dose: 200.0 mg/kg/injection, schedule: Q01DX001 (ip), vehicle: Klucel (hydroxypropylcellulose) (HPC) 108 % of control | [11] 93 % of control | dose: 400.0 mg/kg/injection, schedule: Q01DX001 (ip), vehicle: Klucel (hydroxypropylcellulose) (HPC) 98 % of control | [14] 97 % of control

COc1nc(OC)n(C)c(=O)c1OP(=O)(OC)OC
inactive: [5] 98 % of control | [7] 93 % of control | [10] 93 % of control | [13] 95 % of control

NC(=S)c1c(N)n(C2OC(CO)C(O)C2O)c2ncnc(N)c12 (stereo unspecified)
inactive: dose: 3.12 mg/kg/injection, schedule: Q01DX005 (ip), vehicle: saline 116 % of control | dose: 6.25 mg/kg/injection, schedule: Q01DX005 (ip), vehicle: saline 119 % of control and 124 % of control | dose: 12.5 mg/kg/injection, schedule: Q01DX005 (ip), vehicle: saline 112 % of control and 119 % of control | dose: 25.0 mg/kg/injection, schedule: Q01DX005 (ip), vehicle: saline 105 % of control | dose: 50.0 mg/kg/injection, schedule: Q01DX005 (ip), vehicle: saline 120 % of control

C=CCCCCCCCCC(=O)NC(C)COC (stereo unspecified)
inactive: [15] 103 % of control | [16] 103 % of control | [17] 100 % of control

CC(=O)Nc1ccc2ccccc2c1-c1c(N)ccc2ccccc12
inactive: dose: 100.0 mg/kg/injection, schedule: Q01DX009 (ip), vehicle: gum acacia 91 % of control | dose: 100.0 mg/kg/injection, schedule: Q04DX003 (ip), vehicle: gum acacia 97 % of control | dose: 200.0 mg/kg/injection, schedule: Q01DX009 (ip), vehicle: gum acacia 96 % of control | dose: 200.0 mg/kg/injection, schedule: Q04DX003 (ip), vehicle: gum acacia 92 % of control | dose: 400.0 mg/kg/injection, schedule: Q01DX009 (ip), vehicle: gum acacia 99 % of control | dose: 400.0 mg/kg/injection, schedule: Q04DX003 (ip), vehicle: gum acacia 101 % of control

CCN(CC)C(=O)Nc1cccc(O)c1
inactive: [1] 94 % of control | [2] 91 % of control | [3] 93 % of control

CC(C)S(=O)(=O)/C(Cl)=C(/Cl)C(Cl)=C(Cl)Cl
inactive: dose: 12.5 mg/kg/injection, schedule: Q01DX009 (ip), vehicle: Klucel (hydroxypropylcellulose) (HPC) 106 % of control | [4] 101 % of control | [6] 95 % of control | [8] 87 % of control
